Experimental data from article PMC11160566 (ACS infectious diseases, 2024).

Key:
[1] = molecular target: T1, GES-5 carbapenemase (Klebsiella pneumoniae, UniProt Q09HD0); assay: reporter substrate hydrolysis, absorbance at […] nm; type: biochemical
[2] = molecular target: T1, GES-5 carbapenemase; assay: X-ray crystal structure of acyl-enzyme; type: binding

T1 sequence (Q09HD0 19-287): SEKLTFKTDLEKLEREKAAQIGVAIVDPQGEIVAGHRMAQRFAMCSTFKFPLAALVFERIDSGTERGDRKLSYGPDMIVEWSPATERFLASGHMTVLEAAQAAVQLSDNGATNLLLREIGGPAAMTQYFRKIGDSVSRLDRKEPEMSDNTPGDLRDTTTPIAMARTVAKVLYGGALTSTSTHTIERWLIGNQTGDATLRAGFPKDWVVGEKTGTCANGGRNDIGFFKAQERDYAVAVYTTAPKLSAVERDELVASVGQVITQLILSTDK

Row | Structure (SMILES) | reporter substrate hydrolysis, absorbance at 500 nm [1] | X-ray crystal structure of acyl-enzyme (1.62 Å) [2]
1 | O=C(Cc1cccs1)N[C@@H]1C(=O)N2C(C(=O)O)=C(/C=C/c3ccc([N+](=O)[O-])cc3[N+](=O)[O-])CS[C@H]12 [nitrocefin] | The progress curves for nitrocefin hydrolysis by GES-5 in the presence of NA-1-157 | –
2 | C[C@@H](O)[C@H]1C(=O)N2C(C(=O)O)=C(S[C@@H]3CN[C@H](C(=O)N(C)C)C3)[C@H](C)[C@H]12 [MEM, meropenem] | – | The 3D structures of the acyl-enzyme complexes of GES-5-meropenem and GES-5-NA-1-157 were determined by X-ray crystallography
